The source of these data is ChEMBL document CHEMBL1126348, “1,3,4-trisubstituted pyrrolidinones as scaffolds for construction of peptidomimetic cholecystokinin antagonists” (Bioorg Med Chem Lett, 1992).

Structures are written as SMILES. Bounds are passed on as bounds.

As usually defined, the IC50 is the concentration that gives 50% inhibition. A lower IC50 goes with higher potency. In general, ED50 refers to the dose at which the effect has come halfway, by size or by number of responders.

For the first assay, the target named is T1, Cholecystokinin receptor type A (Rattus norvegicus, UniProt P30551).
T1 sequence (P30551 whole entry): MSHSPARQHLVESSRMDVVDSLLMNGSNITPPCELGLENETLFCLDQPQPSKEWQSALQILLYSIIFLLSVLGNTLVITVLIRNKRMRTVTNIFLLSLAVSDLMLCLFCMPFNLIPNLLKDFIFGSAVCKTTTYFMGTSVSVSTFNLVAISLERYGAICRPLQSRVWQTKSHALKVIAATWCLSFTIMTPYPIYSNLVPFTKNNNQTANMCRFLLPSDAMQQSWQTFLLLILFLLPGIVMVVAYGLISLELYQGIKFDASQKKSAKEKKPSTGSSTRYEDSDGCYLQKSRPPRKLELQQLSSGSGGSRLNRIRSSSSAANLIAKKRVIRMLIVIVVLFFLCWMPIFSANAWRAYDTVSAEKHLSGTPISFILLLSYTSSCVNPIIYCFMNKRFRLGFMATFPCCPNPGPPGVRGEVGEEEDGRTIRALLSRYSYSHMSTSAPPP
The assay is described as follows: Displacement of [125I]CCK-OP radioligand from Cholecystokinin type A receptor in rat pancreatic acinar membrane binding assay. In kind it is cell membranes.
Conditions: not given
On the technique in general: Displacement assays read how much labelled ligand stays bound in the presence of the test substance.
In turn, `O=C(N[C@H]1C(=O)N(c2ccccc2)C[C@@H]1C(=O)O)c1cc2ccccc2[nH]1` had a half-inhibitory concentration (IC50) of 360 nM.

In the case of `O=C(N[C@@H]1C(=O)N(c2ccccc2F)C[C@@H]1C(=O)O)c1ccc2ccccc2c1`, the 50% inhibitory concentration (IC50) stood at 62 nM.

As to `O=C(N[C@@H]1C(=O)N(c2ccccc2)C[C@@H]1C(=O)O)c1ccc2ccccc2c1`, the half-inhibitory concentration (IC50) was found to be 16 nM.

For the compound `O=C(N[C@@H]1C(=O)N(c2ccccc2F)C[C@@H]1C(=O)O)c1cnc2ccccc2c1`, the IC50 came out at 170 nM.

Take `O=C(N[C@@H]1C(=O)N(Cc2ccccc2)C[C@@H]1C(=O)O)c1cc2ccccc2[nH]1`: the 50% inhibitory concentration (IC50) is 550 nM.

Consider `CCCCCN(CCCCC)C(=O)C(CCC(=O)O)NC(=O)c1ccc(Cl)c(Cl)c1` (centres undefined) [LORGLUMIDE], for which the half-maximal inhibitory concentration (IC50) turned out to be 22 nM.

In turn, `O=C(N[C@H]1C(=O)N(c2ccccc2)C[C@@H]1C(=O)O)c1ccc2ccccc2c1` showed an IC50 of 290 nM.

As to `O=C(O)[C@H]1CN(c2ccccc2)C(=O)[C@H]1NS(=O)(=O)c1ccc2ccccc2c1`, the 50% inhibitory concentration (IC50) is over 1000 nM.

`O=C(N[C@@H]1C(=O)N(c2ccccc2)C[C@@H]1C(=O)O)c1cc2ccccc2[nH]1` had an IC50 of 18.5 nM.

Compound `O=C(N[C@@H]1C(=O)N(Cc2ccccc2)C[C@@H]1C(=O)O)c1ccc2ccccc2c1` registered an IC50 of 1290 nM.

The compound `CC(C)(C)OC(=O)[C@H]1CN(c2ccccc2)C(=O)[C@H]1NC(=O)c1ccc2ccccc2c1` displayed an IC50 of over 1000 nM.

The target of a further assay is T2, Cholecystokinin receptor type A (Cavia porcellus, UniProt Q63931).
T2 sequence (Q63931 whole entry): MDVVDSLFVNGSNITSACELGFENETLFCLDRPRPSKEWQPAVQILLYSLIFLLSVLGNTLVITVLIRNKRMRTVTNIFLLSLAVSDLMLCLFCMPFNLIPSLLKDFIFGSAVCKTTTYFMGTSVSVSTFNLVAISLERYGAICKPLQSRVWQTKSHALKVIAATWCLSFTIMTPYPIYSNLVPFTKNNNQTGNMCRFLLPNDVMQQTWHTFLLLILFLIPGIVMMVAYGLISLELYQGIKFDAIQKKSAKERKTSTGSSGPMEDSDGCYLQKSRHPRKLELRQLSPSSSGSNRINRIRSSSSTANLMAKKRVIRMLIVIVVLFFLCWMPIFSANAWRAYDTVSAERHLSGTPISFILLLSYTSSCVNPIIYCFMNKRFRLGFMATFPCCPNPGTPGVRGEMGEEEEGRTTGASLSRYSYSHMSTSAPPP
The assay is described as follows: Compound was tested for competitive blocking of guinea pig ileal smooth muscle strip contraction to cholecystokinin-8 (CCK-8) receptor. In kind it is functional. The note with it: read-out: pA2 (converted).
Take `O=C(N[C@@H]1C(=O)N(c2ccccc2)C[C@@H]1C(=O)O)c1ccc2ccccc2c1`: the Kb is 6.31 nM.

The target of a further assay is T3, Cholecystokinin receptor type A (Rattus norvegicus) (UniProt P30551).
T3 sequence (whole entry): T1 sequence (P30551 whole entry)
Kind of assay: Effective dose of compound causing reversal of cholecystokinin-8 (CCK-8) receptor induced delayed gastric emptying in the rat when administered intraperitoneally. In kind it is functional. As to conditions: Stomach.
In the case of `O=C(N[C@@H]1C(=O)N(c2ccccc2)C[C@@H]1C(=O)O)c1ccc2ccccc2c1`, the ED50 was 0.41 mg/kg.

For another assay, the target named is T3, Cholecystokinin receptor type A (Rattus norvegicus). The assay is described as follows: Effective dose of compound causing reversal of cholecystokinin-8 (CCK-8) receptor induced delayed gastric emptying in the rat when administered orally. In kind it is functional. As to conditions: Stomach.
Regarding `O=C(N[C@@H]1C(=O)N(c2ccccc2)C[C@@H]1C(=O)O)c1ccc2ccccc2c1`, the ED50 came out at 1.8 mg/kg.
